Measurements reported in patent US20070135515A1, “Method for producing sorbicillactone a” (priority 2004, published 2007).

Test system: neuronal cells
Assay: Intracellular calcium level [Ca2+]i in primary neurons (Fura-2 fluorescence ratio 340/380 nm)
Type: cell-based, rat
Source text: Material: The same materials as described in Perovic et al. (1998, Mech. Ageing Dev. 101:1-19) were used. Fura-2-acetoxymethylester (Fura-2-AM) was obtained from Molecular Probes (Leiden, The Netherlands), Dulbecco's modified Eagle's Medium with 4.5 g/L glucose (DMEM/HG), L-glutamic acid (L-Glu), and serotonin (5-HT) from Sigma-Aldrich (Taufkirchen, Germany) and the antibodies mouse-anti-neurofilament (68 kDa) and mouse-anti-glial-fibrillary-acidic-protein (GFAP) from Roche Diagnostics (Mannheim, Germany). Sorbicillactone A of the batch: 2208/2a was used.
Primary neurons: The cortical cell culture was produced from the brains of 17-18 day-old rat embryos, according to a modified procedure [Freshney (1987) Culture of specific cell types. In: Culture of Animal Cells. A Manual of Basic Technique, A. R. Liss, New York, S. 257-288; Perovic et al. (1994) Eur. J. Pharmacol. (Mol. Pharmacol. Sec.) 288:27-33]. After the isolation, the cerebral-hemispheres were put into Hank's Balanced Salt Solution (HBSS) without Ca^2+ and Mg^2+, and the neuronal cells were subsequently dissociated in HBSS using 0.025% (w/v) trypsin (10 min.; 37° C.). The proteolytic reaction was stopped with 10% (v/v) foetal calf serum (FCS). The single-cell suspensions were centrifuged, and the resulting pellet was taken up into Dulbecco's modified Eagles's Medium with 4.5 g/L glucose (DMEM/HG) (contains 2 mM L-glutamine, 100 mU/L insulin, and 10% (v/v) FCS). The cells were plated in a chamber with poly-L-lysine (5 μg/mL, 300 μl/cm^2) in a cell density of 2.0×10^5 cells/cm^2. After two days the DMEM/HG/10%-FCS-medium was removed and replaced with DMEM/HG/serum-free medium. Two weeks after the isolation, the immune staining took place with anti-neurofilament (68 kDa) as a marker for neurons, and anti-GFAP as a marker for glial cells. The cultures contained >80% neurons; the residual 20% were GFAP-positive cells, mainly astrocytes (Ushijima et al. (1995) Eur. J. Neurosci. 7:1353-9). The neurons were held in an atmosphere of 95% air and 5% CO2 at 37° C.
Loading of neurons with Fura-2-AM: The intracellular Ca^2+-concentration ([Ca^2+]i) was determined by fluorescence measurements. The ratio of the absorption of the Ca^2+-indicator dye Fura-2-AM at 340 and 380 nm (Grynkiewicz et al. (1985) J. Biol. Chem. 260:3440-50) was decisive. The neurons were loaded with 6 μM Fura-2-AM in DMEM/HG/serum-free medium (supplemented with 1% (w/v) bovine serum albumin) at 37° C. for 60 min. After incubation, the cells were washed two times with medium, and further incubated for 45 min at 37° C.
Calcium-calibration curve: A calcium-calibration curve was produced according to the methods of Grynkiewicz et al. (1985, J. Biol. Chem. 260:3440-50). Fluorescence pictures were obtained for each buffer at 340 and 380 nm. The quotient from both fluorescence spectra (340/380 nm) was calculated, and depicted as a calibration curve. The quotient (340/380 nm [ratio-value]) of 1.0 corresponds to 228 nM [Ca^2+]i.
Changes of the calcium level in neurons: In all experimental settings, the cells were first loaded with Fura-2-AM, and subsequently stimulated with different substances (in Locke's solution; 154 mM NaCl; 5.6 mM KCl; 3.6 mM NaHCO3; 5.6 mM glucose, and 10 mM Hepes; pH 7.4; without CaCl2). Sorbicillactone A was dissolved in a concentration of 10 mg/mL in 100% (v/v) DMSO, and stored at −20° C. In the first setting, the neurons were stimulated for 5 min with 0.1% (v/v) DMSO (control); after 10 min 200 μM L-glutamic acid (L-Glu), 200 μM serotonin (5-HT), and 2.5 mM CaCl2 were added to the cells. In a second setting, the effect of L-Glu, 5-HT, and 2.5 mM CaCl2 on the calcium level of pre-incubated neurons (each 5 min with 10 μg/mL sorbicillactone A) was tested. In all experiments, the [Ca^2+]i-level was measured for at least 20-25 min. […]

C/C=C/C=C/C(O)=C1/C(=O)C(C)=C(O)[C@@]2(C)OC(=O)[C@@](C)(NC(=O)/C=C/C(=O)O)[C@@H]12 [sorbicillactone A]
effect on [Ca2+]i in neuronal cells (10 μg/mL sorbicillactone A alone): nearly no effect | reduction in the [Ca2+]i-level (pre-incubation 5 min with 10 μg/mL, then 200 μM L-Glu and 2.5 mM CaCl2, p<0.001, FIG. 1A): 46.7% | reduction of the free calcium concentration compared to the control (pre-incubation with 10 μg/mL, then 200 μM 5-HT and 2.5 mM CaCl2, FIG. 1B): 77.6%
